Results on three molecules are retold here after US20130071897A1, “METHOD FOR CONTROLLING UNDESIRABLE BYPRODUCTS FORMATION CAUSED BY CONTAMINATING ORGANISMS IN THE PRODUCTION OF ETHANOL FROM SYNGAS” (COSKATA, INC., priority 2011, published 2013).

In assay [1] the test system is C. autoethanogenum. The assay is described as follows: Balch tube batch growth of homoacetogen C. autoethanogenum on fructose, optical density. It is filed as cell-based. To be noted: added 21 h after inoculation. The procedure: These compounds were first tested to determine their effect on a known homoacetogen. Each compound was tested in a series of batch experiments to determine the growth response of a homoacetogen to the presence of the compound at varying concentrations. The batch experiments were all conducted by anoxically filling a Balch tube with 5 ml of a fermentation medium having the composition given in Tables 2 and 3. To expedite results, these batch experiments used fructose as the growth nutrient source for bacteria. Thus, the media included a 5 g/L of fructose.
Each tube was inoculated with 0.5 ml of the same strain of C. autoethanogenum bacteria seed culture inoculum. The tubes were maintained at a temperature of 37° C. Twenty one hours after the inoculation of the tube with the bacteria, the different crotonate derivatives from Table 1 were added to different tubes in the amounts indicated in Table 4 This was at a time of early to mid-log phase growth for the bacteria. Each fermentation of the bacteria in the media at the different concentration of crotonate derivatives were allowed to progress and were monitored to determine the bacteria growth at selected intervals of time varying from approximately 20 hours to 190 hours. Growth at the intervals was measured by reading the optical density (OD) of the fermentation liquid. Optical density was measured using a Spectronic Spec 20 (Thermo Spectronic) at a wavelength of 600 nm. The OD of the Balch tube culture was measured directly in the tube using absorbance mode on the Spec 20 machine. The machine was set to zero absorbance by first measuring and adjusting the setting to zero absorbance using media only as a blank. This process was repeated at each indicated time point throughout the experiment. The ability of a tube fermentation at a particular concentration of crotonate derivative to reach a predetermined optical density was recorded in Table 4. Table 4 indicates the presence of bacterial growth to an OD of approximately 2 or above with a “+”, and to an optical density in a range of 0.5 to 1.5 as a “+/−”, and indicates the failure of bacterial growth to reach an optical density of approximately 0.5 as a “−”.

In assay [2] the test system is Clostridium tyrobutyricum. The assay is described as follows: Balch tube batch growth of strict butyrogen Clostridium tyrobutyricum on fructose, optical density. In kind it is cell-based. The conditions noted are these: added 21 h after inoculation. How it is done: Similar experiments were conducted to make a preliminary determination as to which of the crotonate and crotonate-like compounds would act as butyrogen retardants. For this purpose the selected compounds were tested again in a series of batch experiments to determine the growth response of butyrogens to the presence of the compound at varying concentrations. The batch experiments were all conducted by anoxically filling a 20 ml Balch tube with 5 ml of a fermentation medium having the composition given in Tables 2 and 3. The media included 0.5 v/v final concentration of a fructose substrate. For each of the crotonate concentrations tested, duplicate test tubes were prepared.
Each tube was inoculated with 0.5 ml seed culture inoculum of the strict butyrogen Clostridium tyrobutyricum. The tubes were maintained at a temperature of 37° C. Twenty one hours after the inoculation of the tube with the bacteria, the different compounds from Table 1 were added to different tubes in the amounts indicated in Table 6. This was at a time of early to mid-log phase growth for the bacteria. Each fermentation of the bacteria in the media at the different concentration of crotonate derivatives were allowed to progress and were monitored to determine the bacteria growth at selected intervals of time varying from approximately 20 hours to 54 hours. Growth at the intervals was measured by reading the optical density (OD) of the fermentation liquid. Optical density was measured as described in Example 1. The ability of a tube fermentation at a particular concentration of crotonate derivative to reach a predetermined optical density was recorded in Table 6. Table 6 indicates the presence of bacterial growth to an OD of approximately 1.8 or above with a “+”, and to an optical density in a range of 0.7 to 1.5 as a “+/−”, and indicates the failure of bacterial growth to reach an optical density of approximately 0.7 as a “−”.

Assay [3] relates to C. autoethanogenum. The assay is described as follows: Toxicity to C. autoethanogenum by batch fermentation using syngas substrate, optical density. The conditions noted are these: for O.D. Response of Various Inhibitors on C. autoethanogenum: Table 21, one value per compound; for O.D. Response to Various Inhibitors: duplicates A and B, amount not given. In kind it is cell-based, Clostridium autoethanogenum. How it is done:
In this example various crotonate-like compounds on are evaluated for toxicity to C. autoethanogenum by batch fermentation using syngas substrate. The batch fermentations are conducted by anoxically filling 100 mL serum bottles with 10 mL of media having the composition given in Tables 12 and 13. Duplicate runs are conducted for each concentration. The compounds are: • C-1 Ethyl 4,4,4-trifluoro-3-(trifluoromethyl)crotonate • C-4 4,4,4-Trifluorocrotonamide • C-9 Ethyl 4,4,4-Trifluoro-3-(amino)crotonate • C-18 3 trifluoromethyl-4-methoxybenzoate.
Each bottle is inoculated with 1.0 mL of seed culture inoculum from an active fermenter using syngas substrate and containing Clostridium autoethanogenum, which inoculum has an OD of about 4.92 (which upon a 10 times dilution provides a starting OD for the fermentation of about 0.49). The bottles are gased with syngas to about 100 kilopascals and maintained at a temperature of 37° C. The bottles are regassed with syngas every 8 to 12 hours. The syngas has the approximate composition set forth in Examples 6 to 10. Twenty four hours after inoculation of the bottles with the bacteria, the compounds are added to different bottles as a solution in 50 μL of N-methylpyrrolidone in the amounts indicated in Tables 20 and 21. The fermentation process is allowed to progress at 37° C. At selected intervals of time, bacterial growth is measured by reading the OD of the fermentation liquid using a Thermo Spectronic Genesys 20 spectrophotometer. Optical density is measured by anoxically removing an aliquot of fermentation liquid and adding it to a disposable cuvette. OD's ranging between 0.01 and 0.4 are measured using fermentation liquid directly, while OD's greater than 0.4 are measure after performing a 1/10 dilution with water.

Setting [4] is: 0 Hours, added 24 h after inoculation.
The mark [5] stands for this setting: 2.5 Hours, added 24 h after inoculation.
Setting [6] is: 6.5 Hours, added 24 h after inoculation.
The mark [7] stands for this setting: 24.5 Hours, added 24 h after inoculation.

Take `O=C(O)/C=C/C(F)(F)F` [G, 4,4,4-trifluorocrotonic acid]: the “Optical density valuation of C. autoethanogenum” value in the assay on C. autoethanogenum [1] (10 ppm(m)) is on record as “+ (bacterial growth to an OD of approximately 2 or above)”; in the assay on C. autoethanogenum [1] (100 ppm(m)), “+ (bacterial growth to an OD of approximately 2 or above)”; with C. autoethanogenum [1] (500 ppm(m)), “+ (bacterial growth to an OD of approximately 2 or above)”; in the assay with C. autoethanogenum [1] (1000 ppm(m)), “+/− (to an optical density in a range of 0.5 to 1.5)”; in the assay with C. autoethanogenum [1] (5000 ppm(m)) it was “− (failure of bacterial growth to reach an optical density of approximately 0.5)”; with C. autoethanogenum [1] (10000 ppm(m)) it was “− (failure of bacterial growth to reach an optical density of approximately 0.5)”. Further, the “Optical density valuation of C. tyrobutyricum” value in assay [2] (100 ppm(m)), in assay [2] (500 ppm(m)) and in assay [2] (1000 ppm(m)) was “+ (bacterial growth to an OD of approximately 1.8 or above)” each time.
On to “3 trifluoromethyl-4-methoxybenzoate [Compound C-18]”, for which the “O.D. Response of Various Inhibitors on C. autoethanogenum” value in the assay with C. autoethanogenum [3] (setting [4]) is reported as 0.49; in the assay on C. autoethanogenum [3] (setting [5]), 0.44; in the assay on C. autoethanogenum [3] (setting [6]), 0.44; with C. autoethanogenum [3] (setting [7]) it was 1.16; in the assay with C. autoethanogenum [3] (30.5 Hours) it was 1.30; in the assay with C. autoethanogenum [3] (47.5 Hours), 1.74. For the same molecule, the “O.D. Response of Various Inhibitors on C. autoethanogenum” value in the assay on C. autoethanogenum [3] (56 Hours) is 1.88. Besides, the “O.D. Response to Various Inhibitors” value stood at 0.49 in the assay with C. autoethanogenum [3] (setting [4]); 0.47 with C. autoethanogenum [3] (setting [5]); 0.41 in the assay with C. autoethanogenum [3] (2.5 Hours, added 24 h after inoculation, listed as C-19); 0.44 with C. autoethanogenum [3] (setting [6]); 1.15 in the assay on C. autoethanogenum [3] (setting [7]); 1.18 in the assay with C. autoethanogenum [3] (24.5 Hours, added 24 h after inoculation, listed as C-19). Besides, the “O.D. Response to Various Inhibitors” value with C. autoethanogenum [3] (30.5 Hours, added 24 h after inoculation) was determined as 1.32; in the assay on C. autoethanogenum [3] (30.5 Hours, added 24 h after inoculation, listed as C-19), 1.28; with C. autoethanogenum [3] (47.5 Hours, added 24 h after inoculation) it was 1.73; in the assay with C. autoethanogenum [3] (47.5 Hours, added 24 h after inoculation, listed as C-19) it was 1.75.
In the case of `CCOC(=O)/C=C(/C)N` [H, ethyl 3-aminocrotonate], the “Optical density valuation of C. autoethanogenum” value with C. autoethanogenum [1] (10 ppm(m)), in the assay on C. autoethanogenum [1] (100 ppm(m)), with C. autoethanogenum [1] (500 ppm(m)), in the assay on C. autoethanogenum [1] (1000 ppm(m)), in the assay with C. autoethanogenum [1] (5000 ppm(m)) and in the assay on C. autoethanogenum [1] (10000 ppm(m)) was “+ (bacterial growth to an OD of approximately 2 or above)” in each case.
